The results in this text go back to patent US20090215805A1, “4-Heteroaryl Pyrimidine Derivatives and use thereof as Protein Kinase Inhibitors” (Cyclacel Limited, priority 2005, published 2009).

As usually defined, the Ki is a measure of affinity in units of concentration, obtained from inhibition or displacement. High values mean a looser hold on the target, low ones a stronger hold on the target. In general, IC50 refers to the concentration that inhibits the measured activity by half. A high value points to a need for much substance. Broadly, the melting point is the temperature of the solid-liquid transition. A word on the EC50: it is the midpoint of the concentration-response curve.

One data set addresses DM Aur A (Dm AK-A) (Drosophila melanogaster, UniProt Q9VGF9). Briefly: Dm aurora A kinase assay (DM Aur A / Dm AK-A). Type of data set: biochemical. The settings on record: for Ki: in vitro kinase assay; for IC50: values without asterisk (DM aurora A). The protocol: (§1) The compounds of the invention above were investigated for their ability to inhibit the enzymatic activity of various protein kinases. This was achieved by measurement of incorporation of radioactive phosphate from ATP into appropriate polypeptide substrates. Recombinant protein kinases and kinase complexes were produced or obtained commercially. Assays were performed using 96-well plates and appropriate assay buffers (typically 25 mM β-glycerophosphate, 20 mM MOPS, 5 mM EGTA, 1 mM DTT, 1 mM […], pH 7.4), into which were added 2-4 μg of active enzyme with appropriate substrates. The reactions were initiated by addition of Mg/ATP mix (15 mM MgCl2+100 μM ATP with 30-50 kBq per well of [γ-^32P]-ATP) and mixtures incubated as required at 30° C. Reactions were stopped on ice, followed by filtration through p81 filterplates or GF/C filterplates (Whatman Polyfiltronics, Kent, UK). After washing 3 times with 75 mM aq orthophosphoric acid, plates were dried, scintillant added and incorporated radioactivity measured in a scintillation counter (TopCount, Packard Instruments, Pangbourne, Berks, UK). Compounds for kinase assay were made up as 10 mM stocks in DMSO and diluted into 10% DMSO in assay buffer. Data was analysed using curve-fitting software (GraphPad Prism version 3.00 for Windows, GraphPad Software, San Diego Calif. USA) to determine IC50 values (concentration of test compound which inhibits kinase activity by 50%).

The next data set concerns the target CDK2/E (Homo sapiens, UniProt P24941). Briefly: CDK2/E in vitro kinase assay. Type of data set: biochemical. The protocol: as §1
A further data set has as its target GSK3 (GSK-3β) (Oryctolagus cuniculus, UniProt A0A5F9DUX8). The data set can be described thus: GSK-3 kinase assay. Type of data set: biochemical, rabbit. Conditions: in vitro kinase assay. Here is the method: GSK-3 was obtained from New England Biolabs (UK) Ltd., Hitchin, Herts. The recombinant enzyme was isolated from a strain of E. coli that carries a clone expressing GSK-3β derived from a rabbit skeletal muscle cDNA library [Wang, Q. M.; Fiol, C. J.; DePaoli-Roach, A. A.; Roach, P. J. J. Biol. Chem., 1994, 269, 14566]. Inhibition of GSK-3 function was assessed by measurement of phosphorylation of CREB phosphopeptide KRREILSRRPphosphoSYR in the presence of test compounds. Using a 96-well assay format, GSK3 (7.5 U) was incubated for 30 min at 30° C. in a total volume of 25 μL in 20 mM MOPS pH 7.2, 25 mM β-glycerophosphate, 5 mM EGTA, 1 mM DTT, 1 mM […], 40 μM CREB peptide, 15 mM MgCl2 and 100 μM ATP (containing 0.25 μCi [γ-^32P]-ATP) in the presence of varying concentrations of test compound. The samples were transferred to 96-well p81 filter plates (Whatman Polyfiltronics, Kent, UK), and the plates were washed 4 times with 200 μL/well of 75 mM aq orthophosphoric acid. Scintillation liquid (50 μL) was added to each well, and incorporated radioactivity for each sample was determined using a scintillation counter (TopCount, Packard Instruments, Pangboume, Berks, UK).

Data set [1] concerns PEPCK gene expression in HEPG2 cells. Briefly: PEPCK gene expression in HEPG2 cells - QPCR assay. Type of data set: cell-based. The settings on record: HEPG2, Dex/cAMP +, percentage of the dexametasone-induced stimulation. The protocol:
PEPCK gene expression was studied in HEPG2 (hepatocarcinoma) cells, seeded in 6-well plate at […] cells per well. The cells were serum starved for 20 hours before treatment with dexamethasone/cAMP (stimulator of PEPCK gene expression) in the presence or absence of insulin or GSK3 inhibitors. After 3 hours treatment the cells were harvested, lysed and RNA extracted using mini RNeasy spin column (Quiagen). The primer set COD2063/COD2064 (350 bp) was used for PEPCK gene. The one step RT-PCR was carried out using the Lightcycler-RNA Master SYBR Green 1 Kit. The qPCR analysis calculates the number of the PCR cycles required for the PCR product amplification to reach logarithmic phase. QPCR for a housekeeping gene—28S—was used for normalisation. PEPCK is a key enzyme in gluconeogenesis in the liver and it is known be negatively regulated by insulin via inhibition of GSK3. The effect of GSK3 inhibitors on PEPCK gene expression was studied in HEPG2 (hepatocarcinoma) cells treated with dexametasone/cAMP (a positive regulator of PEPCK gene expression) in the presence or absence of insulin or GSK3 inhibitors.

For data set [2], the system named is Glycogen synthase activation in HEK293 cells. Briefly: Glycogen synthase activation in HEK293 cells. In kind it is cell-based. The settings on record: Homo sapiens, 1.5 h, 90 minutes treatment. Here is the method:
(§2) HEK293 cells, mouse adipocytes or rat myotubes were treated in 10 cm Petri dishes with different concentrations of GSK3 inhibitors for 90 minutes. At the end of the treatment period the cells were washed and scraped in ice cold PBS buffer supplemented with 20 mM NaF. The cells were pelleted by centrifugation and lysed in 300 μl buffer-50 mM HEPES pH 7.5, 10 mM EDTA, 100 mM NaF, 5 mM DTT, protease inhibitor cocktail (Sigma). After incubation for 30 min on ice the samples were cleared by centrifugation. The activity of glycogen synthase was determined in the soluble fraction at two different concentrations of […]-low (0.1 mM) and high (10 mM). The reaction was carried out for 30 min in a buffer—50 mM Tris pH 7.8, 20 mM EDTA, 25 mM NaF, S mM DTT. The reaction mixture (total volume of 90 μl) consisted as well of 1% glycogen, 0.3 mM UDP-glucose and 0.06 μCi ^14C-UDP-glucose. Reaction was stopped by transfer of 70 μl to a GFC 96-well filter plate, containing 140 μl 100% ethanol an the glycogen was allowed to precipitate for 1 h at 4° C. The wells were washed 2 times with 200 μl 66% ethanol and than let to dry. Subsequently, 100 μl of scintillation liquid were added, and plates were sealed and counted in a Packard Topcounter. Glycogen synthase activation was calculated as the ratio between the incorporation of labelled ^14C-UDP-glucose in glycogen at low and high concentration of […] (fractional velocity).

The subject of data set [3] is Glycogen synthase activation in mouse adipocytes (3T3-L1). The data set can be described thus: Glycogen synthase activation in mouse adipocytes (3T3-L1). In kind it is cell-based. Conditions: 1.5 h; 3T3-L1 mouse adipocytes, 90 minutes treatment. The protocol:
3T3-L1 mouse pre-adipocytes were grown in DMEM supplemented with 10% FCS and pen/strep until fully confluent. Cell differentiation was initiated by the addition of 0.5 mM IBMX (2-isobutyl-1-methylxanthine), 0.25 μM Dexamethasone and 1 μg/ml insulin into the growth media. The differentiation media was replaced after 4 days and 7 days after the initiation of differentiation the cells were grown for additional 3 days in DMEM, 10% FCS and pen/strep.
as §2

The test system of data set [4] is Glycogen synthase activation in rat myotubes (L6.G8.C5). Briefly: Glycogen synthase activation in rat myotubes (L6.G8.C5). The settings on record: Myotube, 1.5 h, 90 minutes treatment. In kind it is cell-based. The protocol:
Rat myotubes were differentiated from L6.G8.C5 myoblasts, which were grown in DMEM, 10% FCS and pen/strep until confluent. The media was then removed, cells washed with PBS and differentiation media containing minimal essential media eagles (alpha modified) supplemented with 2% FCS and pen/strep. The cells were cultured for 3-4 days until >90% of cells have formed multinucleated myotubes. The differentiated cells were then used for determination of glycogen synthase activation after treatment with GSK3 inhibitors.
as §2

A value given as a limit tells only on which side of the number the result lay.

Sequence of GSK3 (GSK-3β) (A0A5F9DUX8 entry or part of it): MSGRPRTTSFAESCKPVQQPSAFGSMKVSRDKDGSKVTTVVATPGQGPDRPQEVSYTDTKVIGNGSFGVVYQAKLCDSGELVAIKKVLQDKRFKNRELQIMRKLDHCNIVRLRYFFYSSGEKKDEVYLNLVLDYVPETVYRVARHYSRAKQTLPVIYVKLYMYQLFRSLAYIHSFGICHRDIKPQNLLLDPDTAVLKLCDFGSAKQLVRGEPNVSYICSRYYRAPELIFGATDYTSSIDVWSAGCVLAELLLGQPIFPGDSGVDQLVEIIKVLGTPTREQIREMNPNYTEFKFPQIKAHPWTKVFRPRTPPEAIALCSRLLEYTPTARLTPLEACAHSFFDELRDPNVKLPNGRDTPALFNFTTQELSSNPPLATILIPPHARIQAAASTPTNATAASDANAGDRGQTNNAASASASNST
Sequence of DM Aur A (Dm AK-A) (Q9VGF9 entry or part of it): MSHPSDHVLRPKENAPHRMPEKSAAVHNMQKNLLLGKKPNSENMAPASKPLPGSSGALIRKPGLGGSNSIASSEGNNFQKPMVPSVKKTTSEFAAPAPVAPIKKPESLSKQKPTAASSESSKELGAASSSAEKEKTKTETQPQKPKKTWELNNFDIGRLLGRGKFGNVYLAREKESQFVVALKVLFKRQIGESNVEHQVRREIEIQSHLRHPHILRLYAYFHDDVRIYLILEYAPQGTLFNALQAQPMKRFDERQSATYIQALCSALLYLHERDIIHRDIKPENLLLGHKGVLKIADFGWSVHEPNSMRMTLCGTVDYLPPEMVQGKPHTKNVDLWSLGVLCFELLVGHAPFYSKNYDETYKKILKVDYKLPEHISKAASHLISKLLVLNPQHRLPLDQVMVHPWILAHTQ

`Cc1[nH]c(CN(C)C)c(C)c1-c1ccnc(Nc2cccc([N+](=O)[O-])c2)n1` [Compound 17] returned a melting point of 88.3 to 92.6 °C. Besides, on DM Aur A (Dm AK-A), affinity was put at a Ki of 40 nM and the IC50 is 102 nM. The molecule also displayed a Ki on CDK2/E of 33 nM. In addition, the Ki at GSK3 (GSK-3β) came out at 3270 nM.
On to “Insulin: insulin, comparator known to negatively regulate PEPCK via inhibition of GSK3”, for which the “% PEPCK activity” value in data set [1] (concentration 0.1 uM) stood at 67.5 ± 9.0%.
In the case of `Cc1[nH]cc(-c2ccccc2)c1-c1ccnc(Nc2cccc([N+](=O)[O-])c2)n1` [Compound 13], the melting point lay within 201 to 203 °C. Also, at DM Aur A (Dm AK-A), the Ki amounted to 335 nM and inhibition was half-maximal at 859 nM (IC50). The molecule further gave a Ki at GSK3 (GSK-3β) of 208 nM.
`Cc1[nH]c(C#N)c(C)c1-c1ccnc(Nc2ccc(Cl)nc2)n1` [Compound 30]: the Ki on DM Aur A (Dm AK-A) turned out to be 681 nM; on CDK2/E, 197 nM; on GSK3 (GSK-3β) it was 3 nM. This molecule gave an IC50 at DM Aur A (Dm AK-A) of 861 nM. The EC50 in data set [2] stood at 2200 nM; in data set [3], 4300 nM; in data set [4], 2300 nM. Further, the entries for the “% PEPCK activity” value in data set [1] (concentration 1 uM) and in data set [1] (concentration 10 uM) were 22.8 ± 12.1% and 16.2 ± 3.8%, respectively.
With `CCNS(=O)(=O)c1cccc(Nc2nccc(-c3c(C)[nH]c(C#N)c3C)n2)c1` [Compound 32], the Ki came out at 161 nM at DM Aur A (Dm AK-A), 377 nM at CDK2/E and 3 nM on GSK3 (GSK-3β). The molecule further returned an IC50 against DM Aur A (Dm AK-A) of 413 nM. Moreover, the EC50 in data set [2] came out at 4100 nM; in data set [3] it was 2100 nM; in data set [4], 5000 nM.
Consider `Cc1[nH]c(C#N)c(C)c1-c1ccnc(Nc2ccc(N(C)C)c([N+](=O)[O-])c2)n1` [Compound 18], for which the Ki on CDK2/E worked out at 119 nM; at GSK3 (GSK-3β), 5 nM. The EC50 is 1500 nM in data set [2] and 4120 nM in data set [3].
Regarding `Cc1[nH]c([N+](=O)[O-])c(C)c1-c1ccnc(Nc2ccc(N(C)C)c([N+](=O)[O-])c2)n1` [Compound 19], the Ki at CDK2/E stood at 41 nM; at GSK3 (GSK-3β), 4 nM. The figures for the EC50 in data set [2], in data set [3] and in data set [4] were 700 nM, 5600 nM and 6300 nM, respectively. For the same molecule, the “% PEPCK activity” value in data set [1] (concentration 1 uM) was 72.9 ± 9.06%; in data set [1] (concentration 10 uM), 45.4 ± 1.9%.
Consider `COc1ccc(Nc2nccc(-c3c(C)[nH]c(C#N)c3C)n2)cn1` [Compound 28], for which the Ki is 177 nM at DM Aur A (Dm AK-A), 188 nM on CDK2/E and 5 nM on GSK3 (GSK-3β). The IC50 against DM Aur A (Dm AK-A) came to 453 nM. Further, the values for the EC50 in data set [2], in data set [3] and in data set [4] were 6600 nM, 7900 nM and 9000 nM, respectively. Besides, the “% PEPCK activity” value in data set [1] (concentration 1 uM) came out at 48.4 ± 7.3%; in data set [1] (concentration 10 uM) it was 11.7 ± 1.3%.
Regarding `Cc1[nH]cc(-c2ccccc2)c1-c1ccnc(Nc2ccc(O)cc2)n1` [Compound 15], the melting point is 194.1 to 195.6 °C. Besides, on DM Aur A (Dm AK-A), the affinity corresponds to a Ki of 602 nM and the IC50 was determined as 1540 nM. The molecule further had a Ki at GSK3 (GSK-3β) of 133 nM.
Take `CCOC(=O)c1[nH]c(C)c(-c2ccnc(Nc3cccc(F)c3)n2)c1-c1ccccc1` [Compound 8]: the melting point lay within 200 to 203 °C. Further, on DM Aur A (Dm AK-A), the Ki is > 10000 nM and the IC50 is ≥ 10000 nM.
As for `Cc1[nH]cc(-c2ccccc2)c1-c1ccnc(Nc2ccc(F)cc2)n1` [Compound 16], the melting point is 196.6 to 198.1 °C. The molecule further yielded a Ki on GSK3 (GSK-3β) of 45 nM.
